How the values were obtained:
NK-92 cells = assay: Flow cytometry of NK-92 activation markers CD69 and CD137; format: cell-based; conditions: NK-92 monoculture, 48 h
Experimental: The surface expression of the NK cell activation markers CD69 and CD137 were also evaluated following the treatment of NK cell monocultures with ARi (FIG. 13D-E).
(§1) PCa cells were plated at a density of 3×10^5 cells per well of a 6-well plate and adhered overnight. […] After treatment, cells were trypsinized, stained, and incubated (Cell Staining Buffer SouthernBiotech #0225-01S) with the corresponding antibody for 45-60 min at 4° C. Viability dye was added with each run. NK-92 cells and patient-derived cells were stained similarly. Markers used for experiments included: Thermofisher HLA-E Monoclonal Antibody (3D12HLA-E), Alexa Fluor™ 488, eBioscience™, CD274 (PD-L1, B7-H1) Monoclonal Antibody (MIH1), eFluor™ 450, eBioscience™, Cell Signaling PD-1 (D4W2J) XPR Rabbit mAb, SYTOX™ Orange Dead Cell Stain, for flow cytometry, BioLegend APC anti-human CD159a (NKG2A) Antibody #375108, BioLegend APC anti-human CD69 Antibody #310909, BioLegend Alexa Fluor® 647 anti-human CD137 (4-1BB) [4B4-1] #309823. For staining of the patient-derived PBMCs and subsequent NK cell characterization, the following antibodies were used: BioLegend Anti-Perforin Mouse Monoclonal Antibody (PerCP Cy5.50, clone: dG9) #308113, BioLegend Anti-Granzyme B Mouse Monoclonal Antibody (FITC, clone: GB11) #515403, BioLegend Anti-CD56 Mouse Monoclonal Antibody (Alexa Fluor® 700, clone: 5.1H1) #362521, and BioLegend (PE anti-human CD45 Antibody) #304008.

[1] = system: PCa cell lines (PC3, LNCaP, 22Rv1, DU145); assay: Cytokine profiling of prostate cancer cell culture supernatants (Luminex 200); format: cell-based; conditions: for IFN-γ secretion: DU145, 22Rv1, and PC3 cell lines; for secretion of immune-activating cytokines such as IL-2 / secretion of pro-tumorigenic and immunosuppressive cytokines such as VEGF, M-CSF, IL-8, CXCL10 and GDF-15: PCa cell lines, 24 h
Experimental: GDF-15 is implicated in the immunosuppressive prostate cancer TME and the progression of benign prostate hyperplasia to adenocarcinoma.
The medium was collected 24 hours after treatment and stored at −80° C. until readout. Samples were shipped to Brown University to run them in biological duplicate on a Luminex 200 Instrument (R&D LX200-XPON-RUO), which captures cytokines on magnetic antibody-coated beads and measures cytokine levels using a system based on the principles of flow cytometry (see https:/www.luminexcorp.com/luminex-100200/#overviewfor more information). A custom […] panel was split into 34-plex and 18-plex assays (R&D LXSAHM) and was run on the Luminex 200 instrument according to the manufacturer's protocol.
We conducted cell viability assays to investigate the effect of Enza and Daro on PC cells (LNCap, 22Rv1 [ARv7 mutation], DU145, PC3 [AR-]) and NK-92 cells. We performed co-culture experiments with PC and NK cells in a 1:1 ratio and analyzed immune cell-mediated tumor cell killing (ImageXpress Confocal HT). Cytokine profiling (Luminex 200) of culture supernatants was performed following treatment with ARi−/+ and anti-IFN-γ antibodies. In vivo studies were performed in NCr Nude mice harboring subcutaneous PC tumors treated orally with Daro (50 mg/kg/bid) and Enza (30 mg/kg/bid) for 4 weeks.

LNCaP = assay: Co-culture of GFP-expressing LNCaP with patient-derived NK cells; format: cell-based, human; conditions: GFP LNCaP, 1:1, 24 h; monalizumab in combination with enza and daro
Text: To validate an additive effect of ARi and monalizumab enhancing NK cell cytotoxicity, we performed a co-culture assay with GFP-labeled PCa cell lines (including ARi-sensitive LNCaP and ARi-resistant PC3) and patient-derived NK cells. The NK cells were negatively selected from whole blood from patients with metastatic prostate cancer before initiation of androgen deprivation therapy. The addition of enzalutamide or darolutamide enhanced the cytotoxicity of NK cells, and the combination of ARi with monalizumab potentiated immune killing (FIG. 15C-D).
Prostate cancer cell lines were dyed with the blue CMAC live-cell dye (Thermo Fisher Scientific #C2110, per manufacturer protocol). Blue-fluorescent cancer cells were plated at a density of 10,000 cells per well of a 48-well plate. NK-92 cells were dyed with green CMFDA (Cayman Chemical Company #19583, per manufacturer protocol). Green-fluorescent NK-92 cells were added to the blue-fluorescent cancer cells at a 1:1 ratio. Enzalutamide (10 μM), darolutamide (20 μM), and 1 μM ethidium homodimer (EthD-1) were added at the same time as the NK cells. After 24 hours of co-culture, images of live cancer cells, live NK cells, and dead cells were taken using a fluorescent microscope. The co-culture experiments were run with internal control conditions and as a single treatment. Normalization was performed after analysis to take baseline death conditions into each experiment run. To optimize the high output of these experiments, a subset of co-cultures were performed using the ImageXpress® Micro Confocal High-Content Imaging. This analysis maintained the experiment conditions, drug concentrations, and the dyeing process. When GFP-labeled tumor cells were used for culture assays, they were added in a 1:1 ratio. Cell adhered over 24 h, and when patient-derived NK cells were added, a control well was trypsinized, and cells resuspended and counted to adjust a 1:1 ratio before treatment addition. The experiments with blocking antibodies were performed using the ImageXpress system. TRAIL blocking ab was purchased from Santa Cruz TRAIL Antibody (RIK-2): sc-56246, and IFN gamma blocking Monoclonal Antibody (NIB42, #6-7318-81) was purchased from Thermo Fisher. The blocking mAb was added when NK cells were combined with tumor cells.
NK cells were isolated from patients harboring metastatic castration-sensitive prostate cancer using the MojoSort™ Human NK Cell Isolation Kit (#480053). Patients signed informed consent for IRB-approved research protocol number 2055-13, allowing the collection of peripheral blood samples. […] The untouched NK cells (CD56+, CD3−) were collected, and the purity of isolation was determined by flow cytometry using anti-CD56 (BioLegend 362503). […]

NK cells = assay: Flow cytometry of NKG2A and PD-1 surface expression on NK cells; format: cell-based
Experimental: as §1
Methods: PCa cell lines (LNCaP, 22Rv1 [ARv7 mutation], DU145[AR-], PC3 [AR-]) were cocultured with NK-92 cells and treated with ARi (enzalutamide [enza] and darolutamide [daro]) or in combination with anti-NKG2A antibody monalizumab. Immune cell-mediated tumor cell killing assays and multiplexed cytokine profiling were performed. NKc expression of NKG2A and PCa cells expression of HLA-E were investigated by flow cytometry. The AR-negative cell lines (PC3 and DU145) were stably transduced with a functional AR pathway to evaluate the modulation of HLA-E by AR. The activation status of peripheral blood NKc isolated from patients with PCa before and post-initiation of androgen deprivation therapy (ADT) was investigated by flow cytometry.

With `CC(O)c1cc(C(=O)N[C@@H](C)Cn2ccc(-c3ccc(C#N)c(Cl)c3)n2)n[nH]1` (some centres unmarked) [darolutamide] the “expression of CD69” value (NK-92 cells) was 88.63%, the “expression of CD137” value (NK-92 cells) was 64.87% and the IFN-γ secretion [1] was “upregulation”. The “secretion of immune-activating cytokines such as IL-2” value [1] was “increased”, the “secretion of pro-tumorigenic and immunosuppressive cytokines such as VEGF, M-CSF, IL-8, CXCL10 and GDF-15” value [1] was “reduced” and the “killing of PCa cells by patient-derived NK cells (in words)” value (LNCaP) was “enhanced”. For the same compound, the “surface expression of NKG2A” value (NK cells) was “modulate”.

In the case of `CNC(=O)c1ccc(N2C(=S)N(c3ccc(C#N)c(C(F)(F)F)c3)C(=O)C2(C)C)cc1F` [enzalutamide], the “expression of CD69” value (NK-92 cells) was 87.4%, the “expression of CD137” value (NK-92 cells) was 61.54% and the IFN-γ secretion [1] was “upregulation”. The “secretion of immune-activating cytokines such as IL-2” value [1] was “increased”, the “secretion of pro-tumorigenic and immunosuppressive cytokines such as VEGF, M-CSF, IL-8, CXCL10 and GDF-15” value [1] was “reduced” and the “killing of PCa cells by patient-derived NK cells (in words)” value (LNCaP) was “enhanced”. The “surface expression of NKG2A” value (NK cells) was “modulate”.

Reference: patent US20240309090A1, “MODULATION OF ANDROGEN SIGNALING TO INNATE IMMUNE KILLING OF PROSTATE CANCER” (Brown University, priority 2023, published 2024)
